“Also recorded” adds a separate entry of the source. Like-named read-outs stand apart in the source and are kept apart here.
Key:
CHO-K1 cells [1] = experiment: Antiproliferative MTT assay, noncancerous cells; format: cell-based; conditions: 72 h exposure, M ± SD, n = 3
Hep G2 cells [2] = experiment: Antiproliferative MTT assay, tumour cells; format: cell-based; conditions: for IC50: MTT assay, 72 h exposure, M ± SD, n = 3, read-out: IC50 for Cancer HEP G2 Cells
Hep G2 cells [3] = tested on: Hep G2 cells; design: method as in doi:10.1039/C6RA06439F; conditions: read-out: IC50 for Cancer HEP G2 Cells, cited from earlier work
CHO-K1 cells [4] = conditions: read-out: IC50 for Noncancerous CHO-K1 Cells, cited from earlier work
[5] = tested on: matrix metalloproteinase-2 (MMP-2) mRNA; experiment: Real-Time PCR (qPCR) gene expression in Hep G2 cells, MMP-2; format: cell-based, human
Procedure: (§1) Hep G2 cells were used to establish cell cultures (2 × 10^4 cells/well). After 24 h of incubation with chemicals at concentration of 50 µM/L or with 1% v/v DMSO (control), the cells were suspended in RL buffer (EURx, Gdansk, Poland) and the total RNA was extracted using Universal RNA purification Kit (EURx, Gdansk, Poland), according to the manufacturer’s protocol. For cDNA synthesis, MMLV reverse transcriptase (Promega, Madison, WI, USA) was used. The reverse transcription reaction was performed with ProFlex PCR System (Applied Biosystems, Foster City, CA, USA). The QuantStudio 7 Flex (Applied Biosystems, Foster City, CA, USA) was employed for the real-time PCR (qPCR). The following Taq-Man human probes (Applied Biosystems) were used for qPCR reaction: VEGFA (Hs00173626_m1), VIM (001855284_m1), MMP-2 (Hs00234422_m1), MMP-9 (Hs00234579_m1) and GAPDH (Hs99999905_m1). Blank qPCR Master Mix (EURx) was used according to the manufacturer’s instructions. Expression data were normalized on the mean housekeeping gene (GAPDH) as a reference. mRNA expressions were obtained with the 2^−ΔΔCt method and relative expression values were presented, as previously published.

[6] = tested on: matrix metalloproteinase-9 (MMP-9) mRNA; experiment: Real-Time PCR (qPCR) gene expression in Hep G2 cells, MMP-9; format: cell-based, human
Procedure: as §1

[7] = tested on: Glutathione Peroxidase (GPx); experiment: Extracellular glutathione peroxidase activity in CHO-K1 culture medium; format: cell-based
Procedure: (§2) Glutathione peroxidase (GPx) activity was assayed spectrophotometrically in culture medium and enzyme function against reactive oxygen species was investigated according to Adachi et al., Comhair et al. and Howie et al. with modification of Zagrodzki, using hydrogen peroxide (H2O2) as a substrate. For experiment, cell cultures of CHO-K1 and Hep G2 cells were established with initial density of the cells as 2 × 10^4 cells/well. Then, the cells were exposed to 50 µM/L of each chemical for 24 h (control cells were incubated with 1% v/v of DMSO) and cell media were collected. Briefly, the samples were incubated with mixture of sodium azide, glutathione reductase, glutathione, reduced β-nicotinamide adenine dinucleotide phosphate (NADPH) and sodium phosphate (pH 7.6) for 2 min at 25 °C and the reaction was initiated by the addition of H2O2. NADPH was converted to NADP and the amount of the product was proportional to GPx activity. The decrease in absorbance at 340 nm over 3 min was recorded using a microplate reader Infinite M200 Pro, Tecan, Austria. The mean value was calculated and expressed as U/L of the cell culture medium.

CHO-K1 cells [8] = experiment: Apoptosis and necrosis detection by flow cytometry, noncancerous cells; format: cell-based; conditions: CHO-K1, 50 µM/L, 24 h, Annexin V/EthD-III flow cytometry
Procedure: (§3) For flow cytometry analyses, CHO-K1 and Hep G2 cells were plated in triplicates into 6-well plates (Sarstedt) at a density of 2 × 10^4 cells per well. The cells were treated for 24 h with tested complexes/comparator salts at concentration of 50 µM/L. Control cells were exposed to DMSO (1% v/v)for 24 h. Then, the cells were detached using Trypsin-EDTA solution, washed with buffered PBS (Lonza, Walkersville, MD, USA), centrifuged at 350× g for 5 min and suspended in binding buffer. Flow cytometry analysis was performed according to the manufacturer’s instructions (Biotium, Hayward, CA, USA). Fluorescent dyes, 488-AnnexinV (excitation maximum at 490 nm/emission maximum at 515 nm) and/or Ethidium homodimer (EthD-III; excitation maximum at 528 nm/emission maximum at 617 nm) were added to cell suspensions. To correct discrimination between cells and debris, SYTO 41 Blue Fluorescent Nucleic Acid Stain was used (excitation maximum at […]). The cells were incubated in dark for 15 min with appropriate dye/dyes and analysed using flow cytometer FACSCanto10C with BD FACSDiva 8.1 System Software (BD Biosciences Immunocytometry Systems, San Jose, CA, USA). The cells were gated according to forward (FSC), side scatter (SSC) and fluorescence parameters (FITC channel was used for 488-AnnexinV and Texas Red channel was used for EthD-III). The results are given as the percentage of apoptotic or necrotic cells of total counted cells.

vimentin (Vim) mRNA = experiment: Real-Time PCR (qPCR) gene expression in Hep G2 cells, vimentin; format: cell-based, human; conditions: Hep G2, 50 μM/L, 24 h, normalized to GAPDH
Procedure: as §1

CHO-K1 cells [9] = experiment: Trypan blue exclusion test, noncancerous cells; format: cell-based; conditions: CHO-K1, 50 µM/L, 24 h exposure, p < 0.05 vs. control
Procedure: (§4) CHO-K1 and HepG2 cells were seeded into 6-well plates (Sarstedt, Numbrecht, Germany) at a density of 2 × 10^4 cells/well and then incubated for 24 h. The cell monolayers were washed with PBS solution (Sigma-Aldrich) and medium in each well was replaced with a new one, with addition of 50 µM/L of tested compound. Then, the cells were incubated in standard conditions for 24, 48 or 72 h. The cells cultured in the medium with addition of 1% v/v DMSO (Sigma-Aldrich) were positive controls (100% of growth). After incubation, the cells were detached using Trypsin-EDTA solution (Life Technologies) and suspended in buffered PBS (Sigma-Aldrich). Trypan Blue Exclusion dye (0.4% v/v, Sigma-Aldrich, Germany) was added to each cell culture and samples were kept at room temperature for 5 min. Then, the numbers of live cells (unstained) and dead cells (blue) in each population exposed to tested chemicals/dissolvent were measured with an automatic cell counter.

[10] = tested on: vascular endothelial growth factor a (VEGFa) mRNA; experiment: Real-Time PCR (qPCR) gene expression in Hep G2 cells, VEGFa; format: cell-based, human; conditions: Hep G2, 50 μM/L, 24 h, normalized to GAPDH
Procedure: as §1

Hep G2 cells [11] = experiment: Apoptosis and necrosis detection by flow cytometry, tumour cells; format: cell-based; conditions: Hep G2, 50 µM/L, 24 h, Annexin V/EthD-III flow cytometry
Procedure: as §3

HepG2 cells [12] = experiment: Cell growth assessment (cell counting), tumour cells; format: cell-based; conditions: HepG2, 50 µM/L, 72 h incubation
Procedure: (§5) For experiments, the cells were seeded at low density (3 × 10^3/mL) into the 6-well plates (Sarstedt, Numbrecht, Germany) and kept for 24 h. Then, the medium was replaced for new one, containing 50 µM/L of tested compound or 1% v/v of DMSO (control). The time points of incubations were set at 24, 48 or 72 h. At the end of each experiment, the cells were gently detached with Trypsin-EDTA solution (Life Technologies), suspended with appropriate growth medium with addition of 10% v/v FBS and centrifuged at 350× g for 5 min. Finally, the cells were suspended in buffered PBS (Sigma-Aldrich) and counted.

HepG2 cells [13] = experiment: Trypan blue exclusion test, tumour cells; format: cell-based; conditions: HepG2, 50 µM/L, p < 0.01 vs. control; for Viable cells vs. control (trypan blue exclusion): 24 h exposure; for Cytotoxicity / cell viability vs. control (trypan blue exclusion): 72 h exposure
Procedure: as §4

CHO-K1 cells [14] = experiment: Cell growth assessment (cell counting), noncancerous cells; format: cell-based; conditions: CHO-K1, 50 µM/L, 72 h incubation
Procedure: as §5

[15] = tested on: Glutathione Peroxidase (GPx); experiment: Extracellular glutathione peroxidase activity in Hep G2 culture medium; format: cell-based; conditions: HepG2 culture medium, 50 μM/L, 24 h
Procedure: as §2

[16] = MTT assay, 72 h exposure, M ± SD
[17] = CHO-K1 culture medium, 50 μM/L, 24 h
[18] = Hep G2, 50 μM/L, 24 h, normalized to GAPDH

SMILES: N.N.[Cl][Pt][Cl] [Cisplatin, cisplatin, reference compound]
- IC50 (CHO-K1 cells [1]): 19.1 ± 2 µM
- Antiproliferative Index IC50 CHO-K1/IC50 HEP G2 (Hep G2 cells [2]; ratio of MTT IC50 values, 72 h): 0.9
- IC50 (Hep G2 cells [3]; [16]): 21.3 ± 2 µM

SMILES: [Cl-].[Cl-].[Co+2] [CoCl2]
- IC50 (CHO-K1 cells [4]): 176 µM
- MMP-2 mRNA expression vs. control [5]: decreased mRNA for MMP-2
- MMP-9 mRNA expression vs. control [6]: did not changed transcript level for MMP-9
- Antiproliferative Index IC50 CHO-K1/IC50 HEP G2 (Hep G2 cells [2]): 1.1
- IC50 (Hep G2 cells [3]): 160 µM
- GPx activity vs. control [7]: did not exert any effect

SMILES: CO.Cc1cc(C)n(CNCn2nc(C)cc2C)n1.Cc1cc(C)n(CNCn2nc(C)cc2C)n1.[Co+2].[I-].[I-] [Complex 1, [Co(L^D)2]I2∙CH3OH]
- Cell death (apoptosis/necrosis) (CHO-K1 cells [8]): minor
- Vim mRNA expression vs. control (vimentin (Vim) mRNA): decreased Vim expression
- IC50 (CHO-K1 cells [1]): 122 ± 10 µM
- Viable cells vs. control (trypan blue exclusion) (CHO-K1 cells [9]): statistically significant decrease in viable cells
- VEGFa mRNA expression vs. control [10]: significantly hampered VEGFa expression
- Necrosis (Hep G2 cells [11]): caused mainly necrotic cell death
- Cell growth vs. control (HepG2 cells [12]): greatest inhibitory effect
- IC50 (Hep G2 cells [2]): 22 ± 4 µM
- Antiproliferative Index IC50 CHO-K1/IC50 HEP G2 (Hep G2 cells [2]; ratio of MTT IC50 values, 72 h): 5.5
- Viable cells vs. control (trypan blue exclusion) (HepG2 cells [13]): statistically significant decrease in viable cells
- Cytotoxicity / cell viability vs. control (trypan blue exclusion) (HepG2 cells [13]): statistically significant toxic effect; also recorded: greatest decrease in Hep G2 cell viability
- GPx activity vs. control [7, 17]: elevated the enzyme activity

SMILES: Cc1cc(C)n(CNCn2nc(C)cc2C)n1.[Co+2].[N-]=C=S.[N-]=C=S [Complex 2, [CoL^D(NCS)2]]
- Cell death (apoptosis/necrosis) (CHO-K1 cells [8]): minor
- IC50 (CHO-K1 cells [1]): 268 ± 15 µM
- Viable cells vs. control (trypan blue exclusion) (CHO-K1 cells [9]): statistically significant decrease in viable cells
- VEGFa mRNA expression vs. control [10]: significantly hampered VEGFa expression
- Necrosis (Hep G2 cells [11]): caused mainly necrotic cell death
- Antiproliferative Index IC50 CHO-K1/IC50 HEP G2 (Hep G2 cells [2]): 7.0
- IC50 (Hep G2 cells [2]): 38.2 ± 5 µM
- Cell growth vs. control (CHO-K1 cells [14]): lowest inhibitory potency
- Viable cells vs. control (trypan blue exclusion) (HepG2 cells [13]): statistically significant decrease in viable cells
- Cytotoxicity / cell viability vs. control (trypan blue exclusion) (HepG2 cells [13]): statistically significant toxic effect
- GPx activity vs. control [7, 17]: elevated the enzyme activity

SMILES: Cc1cc(C)n(CNCn2nc(C)cc2C)n1.Cc1ccccc1.[N-]=C=S.[N-]=C=S.[O]=[V+2] [Complex 3, [VOL^D(NCS)2]∙C6H5CH3]
- Cell death (apoptosis/necrosis) (CHO-K1 cells [8]): minor
- Vim mRNA expression vs. control (vimentin (Vim) mRNA): decreased Vim expression
- IC50 (CHO-K1 cells [1]): 123 ± 3 µM
- Viable cells vs. control (trypan blue exclusion) (CHO-K1 cells [9]): statistically significant decrease in viable cells
- VEGFa mRNA expression vs. control [10]: significantly hampered VEGFa expression
- MMP-2 mRNA expression vs. control [5, 18]: greatest inhibitory effect
- GPx activity vs. control [15]: decreased GPx activity
- Apoptosis (Hep G2 cells [11]): most active promotor of apoptosis
- MMP-9 mRNA expression vs. control [6, 18]: greatest inhibitory effect
- IC50 (Hep G2 cells [2]): 45.6 ± 5 µM
- Antiproliferative Index IC50 CHO-K1/IC50 HEP G2 (Hep G2 cells [2]; ratio of MTT IC50 values, 72 h): 2.7
- Viable cells vs. control (trypan blue exclusion) (HepG2 cells [13]): statistically significant decrease in viable cells
- Cytotoxicity / cell viability vs. control (trypan blue exclusion) (HepG2 cells [13]): statistically significant toxic effect
- GPx activity vs. control [7, 17]: did not disturb antioxidant enzyme activity

SMILES: O=S(=O)([O-])[O-].[O]=[V+2] [VOSO4, reference compound]
- IC50 (CHO-K1 cells [4]; [16]): 98.3 ± 9 µM
- MMP-2 mRNA expression vs. control [5, 18]: did not exert any effect
- GPx activity vs. control [15]: elevated the enzyme activity
- Apoptosis (Hep G2 cells [11]): much weaker than complex 3
- MMP-9 mRNA expression vs. control [6, 18]: did not exert any effect
- IC50 (Hep G2 cells [2]): 75.6 ± 8 µM
- Antiproliferative Index IC50 CHO-K1/IC50 HEP G2 (Hep G2 cells [2]; ratio of MTT IC50 values, 72 h): 1.3

Source: publication PMC7917659, “Selective Cytotoxicity of Complexes with N,N,N-Donor Dipodal Ligand in Tumor Cells” (International Journal of Molecular Sciences, 2021)
